Results taken from PubChem BioAssay (NCI).
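Each compound was tested at five concentrations against cells in 96-well plates for 48 hours. The concentration for 50% growth inhibition is given as GI50. TGI: concentration producing complete growth inhibition.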

Experiments:
Assay in all cases: growth of human tumour cells (NCI), 48 h
RPMI-8226 leukemia = test system: RPMI-8226 leukemia
HS 578T breast = test system: HS 578T breast
IGROV1 ovarian = test system: IGROV1 ovarian
RXF 393 renal = test system: RXF 393 renal
NCI-H460 lung = test system: NCI-H460 lung
SF-295 CNS = test system: SF-295 CNS
MDA-MB-231 breast = test system: MDA-MB-231 breast
OVCAR-3 ovarian = test system: OVCAR-3 ovarian
SNB-19 CNS = test system: SNB-19 CNS
MCF7 breast = test system: MCF7 breast
T-47D breast = test system: T-47D breast
NCI/ADR-RES ovarian = test system: NCI/ADR-RES ovarian
OVCAR-4 ovarian = test system: OVCAR-4 ovarian
PC-3 prostate = test system: PC-3 prostate
HT29 colon = test system: HT29 colon
786-0 renal = test system: 786-0 renal
MALME-3M melanoma = test system: MALME-3M melanoma
NCI-H522 lung = test system: NCI-H522 lung
CAKI-1 renal = test system: CAKI-1 renal
ACHN renal = test system: ACHN renal
UO-31 renal = test system: UO-31 renal
HOP-92 NSCLC = test system: HOP-92 NSCLC
SK-MEL-28 melanoma = test system: SK-MEL-28 melanoma
U251 CNS = test system: U251 CNS
HCT-15 colon = test system: HCT-15 colon
SF-268 CNS = test system: SF-268 CNS
HOP-62 NSCLC = test system: HOP-62 NSCLC
NCI-H23 lung = test system: NCI-H23 lung
SNB-75 CNS = test system: SNB-75 CNS
HCT-116 colon = test system: HCT-116 colon
LOX IMVI melanoma = test system: LOX IMVI melanoma
K-562 leukemia = test system: K-562 leukemia
DU-145 prostate = test system: DU-145 prostate
COLO 205 colon = test system: COLO 205 colon
A498 renal = test system: A498 renal
SK-MEL-5 melanoma = test system: SK-MEL-5 melanoma
TK-10 renal = test system: TK-10 renal
M14 melanoma = test system: M14 melanoma
UACC-257 melanoma = test system: UACC-257 melanoma
CCRF-CEM leukemia = test system: CCRF-CEM leukemia
MDA-MB-435 = test system: MDA-MB-435
OVCAR-8 ovarian = test system: OVCAR-8 ovarian
OVCAR-5 ovarian = test system: OVCAR-5 ovarian
HCC-2998 colon = test system: HCC-2998 colon
KM12 colon = test system: KM12 colon
SN12C renal = test system: SN12C renal
SK-MEL-2 melanoma = test system: SK-MEL-2 melanoma
SW-620 colon = test system: SW-620 colon
HL-60(TB) leukemia = test system: HL-60(TB) leukemia
SF-539 CNS = test system: SF-539 CNS
SR leukemia = test system: SR leukemia
MOLT-4 leukemia = test system: MOLT-4 leukemia
UACC-62 melanoma = test system: UACC-62 melanoma
SK-OV-3 ovarian = test system: SK-OV-3 ovarian
EKVX NSCLC = test system: EKVX NSCLC
A549 NSCLC = test system: A549 NSCLC
NCI-H226 lung = test system: NCI-H226 lung
BT-549 breast = test system: BT-549 breast
MDA-N = test system: MDA-N

Q: What does the source list for `CC[C@H](CO)Nc1nc(NCc2ccccc2)n2ncc(C(C)C)c2n1`?
A: GI50 (RPMI-8226 leukemia): 2.23 µM; TGI (RPMI-8226 leukemia): 6.93 µM; GI50 (HS 578T breast): 1.59 µM; TGI (HS 578T breast): 6.16 µM; GI50 (IGROV1 ovarian): 0.782 µM; TGI (IGROV1 ovarian): > 100 µM; GI50 (RXF 393 renal): 0.25 µM; TGI (RXF 393 renal): 0.792 µM; GI50 (NCI-H460 lung): 1.05 µM; TGI (NCI-H460 lung): 10.9 µM; GI50 (SF-295 CNS): 0.812 µM; TGI (SF-295 CNS): 4.74 µM; GI50 (MDA-MB-231 breast): 2.37 µM; TGI (MDA-MB-231 breast): 9.47 µM; GI50 (OVCAR-3 ovarian): 1.15 µM; TGI (OVCAR-3 ovarian): 4.6 µM; GI50 (SNB-19 CNS): 1.44 µM; TGI (SNB-19 CNS): 12.3 µM; GI50 (MCF7 breast): 0.592 µM; TGI (MCF7 breast): 7.99 µM; GI50 (T-47D breast): 2.48 µM; TGI (T-47D breast): 13.3 µM; GI50 (NCI/ADR-RES ovarian): 2.08 µM; TGI (NCI/ADR-RES ovarian): 15.7 µM; GI50 (OVCAR-4 ovarian): 2.58 µM; TGI (OVCAR-4 ovarian): 37 µM; GI50 (PC-3 prostate): 0.927 µM; TGI (PC-3 prostate): 12.3 µM; GI50 (HT29 colon): 2 µM; TGI (HT29 colon): 15.5 µM; GI50 (786-0 renal): 1.98 µM; TGI (786-0 renal): 10.7 µM; GI50 (MALME-3M melanoma): 2.6 µM; TGI (MALME-3M melanoma): 6.99 µM; GI50 (NCI-H522 lung): 1.46 µM; TGI (NCI-H522 lung): 8.98 µM; GI50 (CAKI-1 renal): 1.02 µM; TGI (CAKI-1 renal): 8.35 µM; GI50 (ACHN renal): 0.808 µM; TGI (ACHN renal): 10.7 µM; GI50 (UO-31 renal): 1.59 µM; TGI (UO-31 renal): > 100 µM; GI50 (HOP-92 NSCLC): 1.67 µM; TGI (HOP-92 NSCLC): 7.1 µM; GI50 (SK-MEL-28 melanoma): 1.16 µM; TGI (SK-MEL-28 melanoma): 3.82 µM; GI50 (U251 CNS): 1.4 µM; TGI (U251 CNS): 10.5 µM; GI50 (HCT-15 colon): 0.872 µM; TGI (HCT-15 colon): 10.5 µM; GI50 (SF-268 CNS): 1.82 µM; TGI (SF-268 CNS): 7.2 µM; GI50 (HOP-62 NSCLC): 2.1 µM; TGI (HOP-62 NSCLC): 8.72 µM; GI50 (NCI-H23 lung): 1.71 µM; TGI (NCI-H23 lung): 7.79 µM; GI50 (SNB-75 CNS): 1.31 µM; TGI (SNB-75 CNS): 3.33 µM; GI50 (HCT-116 colon): 0.51 µM; TGI (HCT-116 colon): 15 µM; GI50 (LOX IMVI melanoma): 1.07 µM; TGI (LOX IMVI melanoma): 10.3 µM; GI50 (K-562 leukemia): 2.44 µM; TGI (K-562 leukemia): 7.38 µM; GI50 (DU-145 prostate): 1.3 µM; TGI (DU-145 prostate): 9.52 µM; GI50 (COLO 205 colon): 1.12 µM; TGI (COLO 205 colon): 3.15 µM; GI50 (A498 renal): 1.25 µM; TGI (A498 renal): 3.44 µM; GI50 (SK-MEL-5 melanoma): 1.78 µM; TGI (SK-MEL-5 melanoma): 4.96 µM; GI50 (TK-10 renal): 2 µM; TGI (TK-10 renal): 10.9 µM; GI50 (M14 melanoma): 2 µM; TGI (M14 melanoma): 7.93 µM; GI50 (UACC-257 melanoma): 3.56 µM; TGI (UACC-257 melanoma): 15 µM; GI50 (CCRF-CEM leukemia): 0.648 µM; TGI (CCRF-CEM leukemia): 9.26 µM; GI50 (MDA-MB-435): 2.06 µM; TGI (MDA-MB-435): 10.1 µM; GI50 (OVCAR-8 ovarian): 2.15 µM; TGI (OVCAR-8 ovarian): 54.8 µM; GI50 (OVCAR-5 ovarian): 1.85 µM; TGI (OVCAR-5 ovarian): 15 µM; GI50 (HCC-2998 colon): 1.2 µM; TGI (HCC-2998 colon): 3.27 µM; GI50 (KM12 colon): 0.711 µM; TGI (KM12 colon): 2.79 µM; GI50 (SN12C renal): 2.41 µM; TGI (SN12C renal): 14.4 µM; GI50 (SK-MEL-2 melanoma): 1.47 µM; TGI (SK-MEL-2 melanoma): 6 µM; GI50 (SW-620 colon): 1.38 µM; TGI (SW-620 colon): 5.56 µM; GI50 (HL-60(TB) leukemia): 0.409 µM; TGI (HL-60(TB) leukemia): 2.68 µM; GI50 (SF-539 CNS): 1.22 µM; TGI (SF-539 CNS): 3.62 µM; GI50 (SR leukemia): 0.249 µM; TGI (SR leukemia): 1.59 µM; GI50 (MOLT-4 leukemia): 2.18 µM; TGI (MOLT-4 leukemia): 9.46 µM; GI50 (UACC-62 melanoma): 1.37 µM; TGI (UACC-62 melanoma): 5.5 µM; GI50 (SK-OV-3 ovarian): 5.55 µM; TGI (SK-OV-3 ovarian): 40.2 µM; GI50 (EKVX NSCLC): 2.41 µM; TGI (EKVX NSCLC): 9.13 µM; GI50 (A549 NSCLC): 1.58 µM; TGI (A549 NSCLC): 41.4 µM; GI50 (NCI-H226 lung): 1.84 µM; TGI (NCI-H226 lung): 10.1 µM; GI50 (BT-549 breast): 1.56 µM; TGI (BT-549 breast): 5.29 µM

Q: Which results are given for `CCOC(=O)c1cnc2oc3ccc(O)cc3c2c1-c1ccccc1`?
A: TGI (RPMI-8226 leukemia): > 100 µM; TGI (HS 578T breast): > 100 µM; GI50 (IGROV1 ovarian): 2.53 µM; TGI (IGROV1 ovarian): > 100 µM; TGI (RXF 393 renal): > 100 µM; TGI (NCI-H460 lung): > 100 µM; TGI (SF-295 CNS): > 100 µM; TGI (MDA-MB-231 breast): 84.5 µM; TGI (OVCAR-3 ovarian): > 100 µM; TGI (SNB-19 CNS): > 100 µM; TGI (MCF7 breast): > 100 µM; TGI (T-47D breast): > 100 µM; GI50 (NCI/ADR-RES ovarian): 4.77 µM; TGI (NCI/ADR-RES ovarian): 73.7 µM; TGI (OVCAR-4 ovarian): > 100 µM; TGI (PC-3 prostate): > 100 µM; TGI (HT29 colon): > 100 µM; TGI (786-0 renal): > 100 µM; TGI (MALME-3M melanoma): > 100 µM; TGI (CAKI-1 renal): > 100 µM; TGI (ACHN renal): > 100 µM; TGI (HOP-92 NSCLC): > 100 µM; TGI (SK-MEL-28 melanoma): > 100 µM; TGI (U251 CNS): > 100 µM; TGI (HCT-15 colon): > 100 µM; GI50 (SF-268 CNS): 29.7 µM; TGI (SF-268 CNS): > 100 µM; TGI (NCI-H23 lung): > 100 µM; GI50 (SNB-75 CNS): 16.5 µM; TGI (SNB-75 CNS): 52.4 µM; TGI (HCT-116 colon): > 100 µM; TGI (LOX IMVI melanoma): > 100 µM; TGI (K-562 leukemia): > 100 µM; TGI (DU-145 prostate): > 100 µM; TGI (COLO 205 colon): > 100 µM; TGI (A498 renal): > 100 µM; TGI (SK-MEL-5 melanoma): > 100 µM; TGI (TK-10 renal): > 100 µM; TGI (M14 melanoma): > 100 µM; TGI (UACC-257 melanoma): > 100 µM; TGI (MDA-N): > 100 µM; TGI (CCRF-CEM leukemia): > 100 µM; TGI (MDA-MB-435): > 100 µM; TGI (OVCAR-8 ovarian): > 100 µM; TGI (OVCAR-5 ovarian): > 100 µM; TGI (HCC-2998 colon): > 100 µM; GI50 (KM12 colon): 5.11 µM; TGI (KM12 colon): > 100 µM; TGI (SN12C renal): > 100 µM; TGI (SK-MEL-2 melanoma): > 100 µM; TGI (SW-620 colon): > 100 µM; TGI (HL-60(TB) leukemia): > 100 µM; TGI (SF-539 CNS): 46.5 µM; TGI (SR leukemia): > 100 µM; TGI (MOLT-4 leukemia): > 100 µM; TGI (UACC-62 melanoma): > 100 µM; TGI (SK-OV-3 ovarian): 46.1 µM; TGI (EKVX NSCLC): > 100 µM; TGI (A549 NSCLC): > 100 µM; TGI (NCI-H226 lung): > 100 µM
